According to patent publication US20220233549A1, “METHOD FOR ALPHAVIRUS INHIBITION” (priority 2019, published 2022):

Test system: CHIKV 181/clone25
Test: CHIKV cytopathic effect (CPE) protection assay in Vero cells
Format: cell-based
Conditions: Chikungunya virus; CHIKV 181/clone25, Vero cells, MOI=0.01, 48 hrs, protection from CPE (crystal violet, absorbance 595nm)

Structure (SMILES)	EC50
O=C(CC1Sc2ncccc2NC1=O)NCC1CCCCC1 (stereo not shown) [Example 2, N-(cyclohexylmethyl)-2-(2-oxo-2,3-dihydro-1H-pyrido[2,3-b][1,4]thiazin-3-yl)acetamide]	< 10 µM
COC(=O)CC1Sc2ncccc2NC1=O (stereo not shown) [Example 3, methyl 2-(2-oxo-2,3-dihydro-1H-pyrido[2,3-b][1,4]thiazin-3-yl)acetate]	> 100 µM
O=C(CC1Sc2ncccc2NC1=O)NCC1CCC(O)CC1 (stereo not shown) [Example 4, N-((4-hydroxycyclohexyl)methyl)-2-(2-oxo-2,3-dihydro-1H-pyrido[2,3-b][1,4]thiazin-3-yl)acetamide]	> 100 µM
O=C(O)CC1Sc2ncccc2NC1=O (stereo not shown) [Example 5, 2-(2-oxo-2,3-dihydro-1H-pyrido[2,3-b][1,4]thiazin-3-yl)acetic acid]	> 100 µM
CN1C(=O)[C@@H](CC(=O)NCC2CCCCC2)Sc2ncccc21 [Example 6, (R)-N-(cyclohexylmethyl)-2-(1-methyl-2-oxo-2,3-dihydro-1H-pyrido[2,3-b][1,4]thiazin-3-yl)acetamide]	< 10 µM
CN1C(=O)[C@H](CC(=O)NCC2CCCCC2)Sc2ncccc21 [Example 7, (S)-N-(cyclohexylmethyl)-2-(1-methyl-2-oxo-2,3-dihydro-1H-pyrido[2,3-b][1,4]thiazin-3-yl)acetamide]	10 to 49.9 µM
CN1CCN(C(=O)CC2Sc3ncccc3N(C)C2=O)CC1 (stereo not shown) [Example 8, 1-methyl-3-(2-(4-methylpiperazin-1-yl)-2-oxoethyl)-1H-pyrido[2,3-b][1,4]thiazin-2(3H)-one]	> 100 µM
CN1C(=O)C(CC(=O)NCC2CCCO2)Sc2ncccc21 (stereo not shown) [Example 9, 2-(1-methyl-2-oxo-2,3-dihydro-1H-pyrido[2,3-b][1,4]thiazin-3-yl)-N-((tetrahydrofuran-2-yl)methyl)acetamide]	> 100 µM
CC(C)NC(=O)CC1Sc2ncccc2N(C)C1=O (stereo not shown) [Example 10, N-isopropyl-2-(1-methyl-2-oxo-2,3-dihydro-1H-pyrido[2,3-b][1,4]thiazin-3-yl)acetamide]	> 100 µM
CCN1CCN(C(=O)CC2Sc3ncccc3N(C)C2=O)CC1 (stereo not shown) [Example 11, 3-(2-(4-ethylpiperazin-1-yl)-2-oxoethyl)-1-methyl-1H-pyrido[2,3-b][1,4]thiazin-2(3H)-one]	> 100 µM
CN1C(=O)C(CC(=O)NCc2ccccn2)Sc2ncccc21 (stereo not shown) [Example 12, 2-(1-methyl-2-oxo-2,3-dihydro-1H-pyrido[2,3-b][1,4]thiazin-3-yl)-N-(pyridin-2-ylmethyl)acetamide]	> 100 µM
CN1C(=O)C(CC(=O)NCc2cccnc2)Sc2ncccc21 (stereo not shown) [Example 13, 2-(1-methyl-2-oxo-2,3-dihydro-1H-pyrido[2,3-b][1,4]thiazin-3-yl)-N-(pyridin-3-ylmethyl)acetamide]	> 100 µM
CN1C(=O)C(CC(=O)NCc2ccncc2)Sc2ncccc21 (stereo not shown) [Example 14, 2-(1-methyl-2-oxo-2,3-dihydro-1H-pyrido[2,3-b][1,4]thiazin-3-yl)-N-(pyridin-4-ylmethyl)acetamide]	> 100 µM
CN1C(=O)C(CC(=O)NCc2ccccc2)Sc2ncccc21 (stereo not shown) [Example 15, N-benzyl-2-(1-methyl-2-oxo-2,3-dihydro-1H-pyrido[2,3-b][1,4]thiazin-3-yl)acetamide]	10 to 49.9 µM
CCC(C)NC(=O)CC1Sc2ncccc2N(C)C1=O (stereo not shown) [Example 16, N-(sec-butyl)-2-(1-methyl-2-oxo-2,3-dihydro-1H-pyrido[2,3-b][1,4]thiazin-3-y)acetamide]	> 100 µM
CC(NC(=O)CC1Sc2ncccc2N(C)C1=O)c1ccccc1 (stereo not shown) [Example 17, 2-(1-methyl-2-oxo-2,3-dihydro-1H-pyrido[2,3-b][1,4]thiazin-3-yl)-N-(1-phenylethyl)acetamide]	> 100 µM
COCCNC(=O)CC1Sc2ncccc2N(C)C1=O (stereo not shown) [Example 18, N-(2-methoxyethyl)-2-(1-methyl-2-oxo-2,3-dihydro-1H-pyrido[2,3-b][1,4]thiazin-3-yl)acetamide]	> 100 µM
CN1C(=O)C(CC(=O)NC2CCCCC2)Sc2ncccc21 (stereo not shown) [Example 19, N-cyclohexyl-2-(1-methyl-2-oxo-2,3-dihydro-1H-pyrido[2,3-b][1,4]thiazin-3-yl)acetamide]	> 100 µM
CN1C(=O)C(CC(=O)NC2=CCCCC2)Sc2ncccc21 (stereo not shown) [Example 20, N-(cyclohex-1-en-1-yl)-2-(1-methyl-2-oxo-2,3-dihydro-1H-pyrido[2,3-b][1,4]thiazin-3-yl)acetamide]	10 to 49.9 µM
COCCCNC(=O)CC1Sc2ncccc2N(C)C1=O (stereo not shown) [Example 21, N-(3-methoxypropyl)-2-(1-methyl-2-oxo-2,3-dihydro-1H-pyrido[2,3-b][1,4]thiazin-3-yl)acetamide]	> 100 µM
CN1C(=O)C(CC(=O)NC2CCCC2)Sc2ncccc21 (stereo not shown) [Example 22, N-cyclopentyl-2-(1-methyl-2-oxo-2,3-dihydro-1H-pyrido[2,3-b][1,4]thiazin-3-yl)acetamide]	50 to 99.9 µM
CN1C(=O)C(CC(=O)NC2CCCCCC2)Sc2ncccc21 (stereo not shown) [Example 23, N-cycloheptyl-2-(1-methyl-2-oxo-2,3-dihydro-1H-pyrido[2,3-b][1,4]thiazin-3-yl)acetamide]	10 to 49.9 µM

Structure (SMILES)	EC50
CN1C(=O)C(CC(=O)NCc2ccc(F)cc2)Sc2ncccc21 (stereo not shown) [Example 24, N-(4-fluorobenzyl)-2-(1-methyl-2-oxo-2,3-dihydro-1H-pyrido[2,3-b][1,4]thiazin-3-yl)acetamide]	< 10 µM
CN1C(=O)C(CC(=O)NCc2ccccc2C(F)(F)F)Sc2ncccc21 (stereo not shown) [Example 25, 2-(1-methyl-2-oxo-2,3-dihydro-1H-pyrido[2,3-b][1,4]thiazin-3-yl)-N-(2-(trifluoromethyl)benzyl)aceta-mide]	> 100 µM
Cc1ccc(CNC(=O)CC2Sc3ncccc3N(C)C2=O)cc1 (stereo not shown) [Example 26, 2-(1-methyl-2-oxo-2,3-dihydro-1H-pyrido[2,3-b][1,4]thiazin-3-yl)-N-(4-methylbenzyl)acetamide]	10 to 49.9 µM
CN(Cc1ccccc1)C(=O)CC1Sc2ncccc2N(C)C1=O (stereo not shown) [Example 27, N-benzyl-N-methyl-2-(1-methyl-2-oxo-2,3-dihydro-1H-pyrido[2,3-b][1,4]thiazin-3-yl)acetamide]	> 100 µM
CN(C)CCCNC(=O)CC1Sc2ncccc2N(C)C1=O (stereo not shown) [Example 28, N-(3-(dimethylamino)propyl)-2-(1-methyl-2-oxo-2,3-dihydro-1H-pyrido[2,3-b][1,4]thiazin-3-yl)acetamide]	> 100 µM
CC(C)CCNC(=O)CC1Sc2ncccc2N(C)C1=O (stereo not shown) [Example 29, N-isopentyl-2-(1-methyl-2-oxo-2,3-dihydro-1H-pyrido[2,3-b][1,4]thiazin-3-yl)acetamide]	< 10 µM
CN1C(=O)C(CC(=O)NCc2ccco2)Sc2ncccc21 (stereo not shown) [Example 30, N-(furan-2-ylmethyl)-2-(1-methyl-2-oxo-2,3-dihydro-1H-pyrido[2,3-b][1,4]thiazin-3-yl)acetamide]	> 100 µM
CN1C(=O)C(CC(=O)N2CCCCCC2)Sc2ncccc21 (stereo not shown) [Example 31, 3-(2-(azepan-1-yl)-2-oxoethyl)-1-methyl-1H-pyrido[2,3-b][1,4]thiazin-2(3H)-one]	> 100 µM
CC(C)N1CCN(C(=O)CC2Sc3ncccc3N(C)C2=O)CC1 (stereo not shown) [Example 32, 3-(2-(4-isopropylpiperazin-1-yl)-2-oxoethyl)-1-methyl-1H-pyrido[2,3-b][1,4]thiazin-2(3H)-one]	> 100 µM
Cc1ccc(CNC(=O)CC2Sc3ncccc3N(C)C2=O)o1 (stereo not shown) [Example 33, 2-(1-methyl-2-oxo-2,3-dihydro-1H-pyrido[2,3-b][1,4]thiazin-3-yl)-N-((5-methylfuran-2-yl)methyl)acetamide]	> 100 µM
CCCN1CCN(C(=O)CC2Sc3ncccc3N(C)C2=O)CC1 (stereo not shown) [Example 34, 1-methyl-3-(2-oxo-2-(4-propylpiperazin-1-yl)ethyl)-1H-pyrido[2,3-b][1,4]thiazin-2(3H)-one]	> 100 µM
CC1CCCN(C(=O)CC2Sc3ncccc3N(C)C2=O)C1 (stereo not shown) [Example 35, 1-methyl-3-(2-(3-methylpiperidin-1-yl)-2-oxoethyl)-1H-pyrido[2,3-b][1,4]thiazin-2(3H)-one]	> 100 µM
CC1CCN(C(=O)CC2Sc3ncccc3N(C)C2=O)CC1 (stereo not shown) [Example 36, 1-methyl-3-(2-(4-methylpiperidin-1-yl)-2-oxoethyl)-1H-pyrido[2,3-b][1,4]thiazin-2(3H)-one]	> 100 µM
CN1C(=O)C(CC(=O)N2CCCC2)Sc2ncccc21 (stereo not shown) [Example 37, 1-methyl-3-(2-oxo-2-(pyrrolidin-1-yl)ethyl)-1H-pyrido[2,3-b][1,4]thiazin-2(3H)-one]	> 100 µM
CN1C(=O)C(CC(=O)N2CCCCC2)Sc2ncccc21 (stereo not shown) [Example 38, 1-methyl-3-(2-oxo-2-(piperidin-1-yl)ethyl)-1H-pyrido[2,3-b][1,4]thiazin-2(3H)-one]	> 100 µM
CC(NC(=O)CC1Sc2ncccc2N(C)C1=O)c1cccnc1 (stereo not shown) [Example 39, 2-(1-methyl-2-oxo-2,3-dihydro-1H-pyrido[2,3-b][1,4]thiazin-3-yl)-N-(1-(pyridin-3-yl)ethyl)acetamide]	> 100 µM
CC1CCCCN1CCNC(=O)CC1Sc2ncccc2N(C)C1=O (stereo not shown) [Example 40, 2-(1-methyl-2-oxo-2,3-dihydro-1H-pyrido[2,3-b][1,4]thiazin-3-yl)-N-(2-(2-methylpiperidin-1-yl)ethyl)acetamide]	> 100 µM
CN1C(=O)C(CC(=O)NCc2cccs2)Sc2ncccc21 (stereo not shown) [Example 41, 2-(1-methyl-2-oxo-2,3-dihydro-1H-pyrido[2,3-b][1,4]thiazin-3-yl)-N-(thiophen-2-ylmethyl)acetamide]	10 to 49.9 µM
CCN1C(=O)C(CC(=O)NCc2ccncc2)Sc2ncccc21 (stereo not shown) [Example 42, 2-(1-ethyl-2-oxo-2,3-dihydro-1H-pyrido[2,3-b][1,4]thiazin-3-yl)-N-(pyridin-4-ylmethyl)acetamide]	> 100 µM
CCN1C(=O)C(CC(=O)NCc2ccccc2)Sc2ncccc21 (stereo not shown) [Example 43, N-benzyl-2-(1-ethyl-2-oxo-2,3-dihydro-1H-pyrido[2,3-b][1,4]thiazin-3-yl)acetamide]	> 100 µM
CCN1C(=O)C(CC(=O)NCC2CCCCC2)Sc2ncccc21 (stereo not shown) [Example 44, N-(cyclohexylmethyl)-2-(1-ethyl-2-oxo-2,3-dihydro-1H-pyrido[2,3-b][1,4]thiazin-3-yl)acetamide]	10 to 49.9 µM
